Results reported in patent US11478440B2, “Combination of Elafibranor or derivatives thereof with an anti-NASH, anti-fibrotic or anti-cholestatic agent” (GENFIT, priority 2017, dated 2022).

Key:
[1] = test system: fibrosing NASH-model of rats fed a CDAA+1% cholesterol diet; assay: Chronic CDAA+1% cholesterol rat model: liver histology (picrosirius fibrosis surface, NASH lesions); assay type: in vivo, Wistar rats
Procedure: The preventive effects of Elafibranor alone, OCA alone and the combination of both were assessed in a fibrosing NASH-model of rats fed a CDAA+1% cholesterol diet. 150-175 g male Wistar rats were fed a control (CSAA) diet, CDAA+1% cholesterol diet, or CDAA+1% cholesterol diet supplemented with Elafibranor 1, 3 and 10 mg/kg/day, OCA 10 and 30 mg/kg/day or combined drugs (Elafibranor 1, 3 and 10 mg/kg/day combined to OCA 10 mg/kg/day) for 12 weeks.
The body weight and the food intake were monitored twice per week. On the last day of treatment, rats were sacrificed after a 6 h fasting period. The liver was rapidly excised for biochemical and histological studies.
The liver slices were first fixed for 12 hours in formalin 4% solution. Then, the liver pieces were washed 30 minutes in PBS, and dehydrated in ethanol solutions (successive baths at 70, 80, 95 and 100% ethanol). The liver pieces were incubated in three different baths of Xylene (Sigma-Aldrich cat #534056), followed by two baths in liquid paraffin (56° C.). Liver pieces were then put into racks that were gently filled with HISTOWAX to completely cover the tissue.
The paraffin blocks containing the tissue pieces were removed from the racks and stored at room temperature. The liver blocks were cut into 3 μm slices.
Liver sections were deparaffinized, rehydrated and incubated for 3 minutes in Mayer's Hematoxylin (Microm, cat #F/C0303). Then, the liver sections were rinsed in water and incubated 1 minute in Eosin G (VWR, cat #1.09844.1000). Sections were rinsed in water then dehydrated, and mounted using the CV Mount medium (Leica, cat #14046430011).
(§1) Liver sections were deparaffinized, rehydrated and incubated for 15 minutes in a solution of Fast Green FCF 0.1% (Sigma-Aldrich, cat #F7258) before rinsing in a bath of 0.5% acetic acid (Panreac, cat #131008.1611). Then, the liver sections were rinsed in water and incubated 30 minutes in a solution of 0.1% sirius red (Direct Red 80, Fluka cat #43665) in saturated aqueous picric acid (Sigma-Aldrich cat #P6744). Sections were then dehydrated, and mounted using the CV Mount medium (Leica, cat #14046430011).
(§2) A technician blinded to the source of each liver specimen performed histological examinations. Virtual slides were generated using the Pannoramic 250 scanner from 3D Histech. For each animal, a score summarizing the main histological lesions of NASH was attributed according to the NASH Clinical Research Network (Kleiner 2005, Brunt 1999). Briefly, steatosis, lobular inflammation and hepatocytes ballooning were scored. The NAFLD Activity Score (NAS score) was established for each individual as the unweighted sum of the steatosis (0-3), lobular inflammation (0-3) and the ballooning (0-2) injury grading.
(§3) Using Quant Center software (3D Histech, including Pattern Quant and Histo Quant modules), collagen-stained areas were quantified. Briefly, Pattern Quant was used to detect the tissue and measure its surface. Then, Histo Quant was used to detect the stained collagen content and measure its surface, based on a color threshold method. The fibrosis area was then expressed as the percentage of the collagen surface to the whole tissue per animal.

[2] = test system: mice with NASH (CDFF-fed mice); assay: Mouse fibrosing-NASH model (CDFF diet, 8 weeks); assay type: in vivo, C57Bl/6J mice; details: elafibranor 3 mg/kg/day
Procedure: The preventive effects of the combinations of elafibranor with selonsertib, GKT-831 or GS-0976 were assessed in mice fed a choline-deficient, […] diet (CDAA) supplemented with 2% cholesterol, 30% milk fat diet and high fructose corn syrup 55 (55% fructose/45% glucose for a final concentration of 42 g/L) in drinking water (Mells et al J Nutr Biochem 2015) (CDFF diet). 5-6 weeks old male C57Bl/6J mice were fed a control (CSAA) diet (n=4), CDFF (n=12), or CDFF supplemented with elafibranor (1 or 3 mg/kg/day), selonsertib (30 mg/kg/day), GKT-831 ([…]) alone or in combination (n=8 per group) for 8 weeks.
The body weight, the food and water intake were monitored twice per week. On the last day of treatment, plasma samples were obtained from retro-orbital blood sampling and mice were sacrificed after a 6 h-fasting period. The liver was rapidly excised for biochemical and histological analyses. All animal procedures were performed according to standard protocols and in accordance with the standard recommendations for the proper care and use of laboratory animals.
The liver slices were fixed in a formalin 4% solution. Then, the liver pieces were washed 30 minutes in PBS, and dehydrated in ethanol solutions (successive baths at 70, 80, 95 and 100% ethanol). The liver pieces were incubated in three different baths of Xylene (Honeywell cat #534056), followed by two baths in liquid paraffin (59° C.). Liver pieces were then put into racks that were gently filled with HISTOWAX to completely cover the tissue.
Liver sections were deparaffinized, rehydrated and incubated for 3 minutes in Mayer's Hematoxylin (Microm, cat #F/C0303). Then, the liver sections were rinsed in water and incubated 1 minute in a Eosin Y 0.5% alcoholic (VWR, cat #1.02439.0500) and Erythrosin 0.5% solution (VWR, cat #1.15936.0010), and rinsed in with ethanol. Sections were then incubated for 2 minutes in Safranin, and were eventually dehydrated and mounted using the CV Mount medium (Leica, cat #046430011).
as §1
as §2, with “hepatocyte” for “hepatocytes”, “(NAS)” for “(NAS score)”
as §3
The hepatic collagen content was determined using the appropriate QuickZyme kit (Total collagen assay, cat #QZB-totcol2). The assay is based on the detection of hydroxyproline, which is a non-proteinogenic amino acid mainly found in the triple helix of collagen. […]

Substance: 1-[4-methylthiophenyl]-3-[3,5-dimethyl-4-carboxydimethylmethyloxyphenyl]prop-2-en-1-one [Elafibranor]
- fibrosis development ([1]; CDAA/chol diet rats, 12 weeks): very significant attenuation of fibrosis development
- hepatocyte damage as judged by ballooning ([1]; CDAA/chol diet rats, 12 weeks): prevented or attenuated by elafibranor, in a dose-dependent manner
- lobular inflammation ([1]; CDAA/chol diet rats, 12 weeks): attenuated by elafibranor in a dose-dependent manner
- Fibrosis surface, percentage over the untreated CDAA + 1% cholesterol rats ([1]; GFT505 3 mg/kg/d, OCA 10 mg/kg/d, alone or combined, 12 weeks in diet): 34% ± 17%
- NASH histology (steatosis, hepatic lobular inflammation, NAFLD activity score) [2]: improves NASH histology
- hepatic expression of genes related to inflammation, tissue remodeling and fibrogenesis ([2]; alone or with selonsertib 30 mg/kg/day): decreases
- hepatic fibrosis (histology, hepatic collagen content, PIIINP and TIMP-1) ([2]; selonsertib 30 mg/kg/day, alone or combined): marked reduction of hepatic fibrosis
